Test results as given in US8192962B2, “Processes for detecting toxic substances” (Daikin Industries, Ltd., priority 2001, dated 2012).

Test system: Unknown protein yeast genes
Test: DNA chip mRNA expression in yeast, unknown protein yeast genes (Table 1)
Type: cell-based, Saccharomyces cerevisiae S288C
Description: Yeast (Saccharomyces cerevisiae S288C (α SUC2mal mel gap2 CUP1)) were incubated at 25° C. on YPD medium (yeast extract 1%, polypepton 2%, glucose 2%). One of toxic chemical substances was added to the cells at logarithmic growth phase, and the cells were further incubated for two hours. Cells were cultured without any chemical substance in the same condition, and were used as control. Concentrations of the chemical substances were defined to inhibit the growth of the yeast but not lead to death.
After completion of the incubation, the culture was centrifuged to collect the cells. To the cells, sodium acetate buffer (50 mM sodium acetate, 10 mM EDTA, 1% SDS) was added, and the mixture was shaken at 65° C. for five minutes, followed by returning to room temperature, and obtaining the supernatant, of which the procedures were repeated two times. To the supernatant, ½ amount of a solution of phenol/chloroform was added, and the mixture was centrifuged to give a supernatant, which was added with an equal amount of chloroform, and the mixture was centrifuged to give a supernatant. To the supernatant, an equal amount of isopropanol containing 0.3 M sodium acetate was added, and the mixture was allowed to stand at room temperature for 30 minutes, after which the mixture was centrifuged to give a sediment of the whole RNAs. Seventy % ethanol was added to the sediment, and the mixture was again centrifuged to give a sediment, which was then dried and dissolved in water. mRNA was isolated from the whole RNAs as followings. In view of the fact that a poly A chain is attached to the 3′ terminus of mRNA, a polynucleotide having a poly T structure which was immobilized on the surface of latex beads was used to trap the mRNA, and then the mRNA was washed and eluted with spine column (Oligotex-dT30<Super>mRNA Purification Kit, Takara). Reverse transcription of the mRNA was conducted with a reverse transcriptase (Super Script II Reverse Transcriptase; catalogue No. 18064-014, GibcoBRL) using fluorescence-labeled nucleotides to give cDNAs that were introduced with Cy3-dUTP or Cy5-dUTP during the reverse transcription.
The labeled cDNAs were dissolved in TE buffer (10mM Tris-HCl/1 mM EDTA, pH8.0), and the solution was dropped on the DNA chip containing the whole genes of yeast (DNA Chip Research Inc. Japan) so that the cDNAs were hybridized on the DNA chip at 65° C. for over 12 hours. The fluoresces intensity of the DNA chip was read with a scanner, and the ratio relative to the fluorescence intensity resulting from the absence of chemical substance was estimated as the following, which is shown in Tables 1 to 9: […]

Cl[C@H]1[C@H](Cl)[C@@H](Cl)[C@@H](Cl)[C@H](Cl)[C@H]1Cl [(7), γ-hexachlorocyclohexane]
The level of expressed mRNA in the presence of chemical substance/The level of expressed mRNA in the absence of chemical substance (yeast gene YKL195W, incubated two hours with chemical substance): 2.1 | The level of expressed mRNA in the presence of chemical substance/The level of expressed mRNA in the absence of chemical substance (yeast gene YKR091W, incubated two hours with chemical substance): 1.3 | The level of expressed mRNA in the presence of chemical substance/The level of expressed mRNA in the absence of chemical substance (yeast gene YLR054C, incubated two hours with chemical substance): 1.1 | The level of expressed mRNA in the presence of chemical substance/The level of expressed mRNA in the absence of chemical substance (yeast gene YLR149C, incubated two hours with chemical substance): 1.6 | The level of expressed mRNA in the presence of chemical substance/The level of expressed mRNA in the absence of chemical substance (yeast gene YLR152C, incubated two hours with chemical substance): 1.4 | The level of expressed mRNA in the presence of chemical substance/The level of expressed mRNA in the absence of chemical substance (yeast gene YLR194C, incubated two hours with chemical substance): 1.0 | The level of expressed mRNA in the presence of chemical substance/The level of expressed mRNA in the absence of chemical substance (yeast gene YLR324W, incubated two hours with chemical substance): 1.0 | The level of expressed mRNA in the presence of chemical substance/The level of expressed mRNA in the absence of chemical substance (yeast gene YLR350W, incubated two hours with chemical substance): 1.2 | The level of expressed mRNA in the presence of chemical substance/The level of expressed mRNA in the absence of chemical substance (yeast gene YLR387C, incubated two hours with chemical substance): 1.1 | The level of expressed mRNA in the presence of chemical substance/The level of expressed mRNA in the absence of chemical substance (yeast gene YLR460C): 1.1 | The level of expressed mRNA in the presence of chemical substance/The level of expressed mRNA in the absence of chemical substance (yeast gene YML117W, incubated two hours with chemical substance): 0.7 | The level of expressed mRNA in the presence of chemical substance/The level of expressed mRNA in the absence of chemical substance (yeast gene YMR009W, incubated two hours with chemical substance): 1.9 | The level of expressed mRNA in the presence of chemical substance/The level of expressed mRNA in the absence of chemical substance (yeast gene YMR067C, incubated two hours with chemical substance): 1.2 | The level of expressed mRNA in the presence of chemical substance/The level of expressed mRNA in the absence of chemical substance (yeast gene YMR090W): 2.7 | The level of expressed mRNA in the presence of chemical substance/The level of expressed mRNA in the absence of chemical substance (yeast gene YMR095C, incubated two hours with chemical substance): 1.2 | The level of expressed mRNA in the presence of chemical substance/The level of expressed mRNA in the absence of chemical substance (yeast gene YMR097C, incubated two hours with chemical substance): 1.5 | The level of expressed mRNA in the presence of chemical substance/The level of expressed mRNA in the absence of chemical substance (yeast gene YMR102C, incubated two hours with chemical substance): 1.8 | The level of expressed mRNA in the presence of chemical substance/The level of expressed mRNA in the absence of chemical substance (yeast gene YMR107W, incubated two hours with chemical substance): 1.2 | The level of expressed mRNA in the presence of chemical substance/The level of expressed mRNA in the absence of chemical substance (yeast gene YMR180C, incubated two hours with chemical substance): 1.7 | The level of expressed mRNA in the presence of chemical substance/The level of expressed mRNA in the absence of chemical substance (yeast gene YMR184W, incubated two hours with chemical substance): 1.6 | The level of expressed mRNA in the presence of chemical substance/The level of expressed mRNA in the absence of chemical substance (yeast gene YMR191W, incubated two hours with chemical substance): 2.0 | The level of expressed mRNA in the presence of chemical substance/The level of expressed mRNA in the absence of chemical substance (yeast gene YMR295C, incubated two hours with chemical substance): 1.3 | The level of expressed mRNA in the presence of chemical substance/The level of expressed mRNA in the absence of chemical substance (yeast gene YMR316W, incubated two hours with chemical substance): 2.0 | The level of expressed mRNA in the presence of chemical substance/The level of expressed mRNA in the absence of chemical substance (yeast gene YNL044W, incubated two hours with chemical substance): 0.9 | The level of expressed mRNA in the presence of chemical substance/The level of expressed mRNA in the absence of chemical substance (yeast gene YNL074C, incubated two hours with chemical substance): 1.1 | The level of expressed mRNA in the presence of chemical substance/The level of expressed mRNA in the absence of chemical substance (yeast gene YNL092W, incubated two hours with chemical substance): 1.6 | The level of expressed mRNA in the presence of chemical substance/The level of expressed mRNA in the absence of chemical substance (yeast gene YNL115C, incubated two hours with chemical substance): 2.4 | The level of expressed mRNA in the presence of chemical substance/The level of expressed mRNA in the absence of chemical substance (yeast gene YNL156C, incubated two hours with chemical substance): 1.9 | The level of expressed mRNA in the presence of chemical substance/The level of expressed mRNA in the absence of chemical substance (yeast gene YNL234W, incubated two hours with chemical substance): 1.2 | The level of expressed mRNA in the presence of chemical substance/The level of expressed mRNA in the absence of chemical substance (yeast gene YNL281W, incubated two hours with chemical substance): 1.2 | The level of expressed mRNA in the presence of chemical substance/The level of expressed mRNA in the absence of chemical substance (yeast gene YNL305C, incubated two hours with chemical substance): 1.7 | The level of expressed mRNA in the presence of chemical substance/The level of expressed mRNA in the absence of chemical substance (yeast gene YNR068C, incubated two hours with chemical substance): 1.8 | The level of expressed mRNA in the presence of chemical substance/The level of expressed mRNA in the absence of chemical substance (yeast gene YOL032W, incubated two hours with chemical substance): 1.4 | The level of expressed mRNA in the presence of chemical substance/The level of expressed mRNA in the absence of chemical substance (yeast gene YOL036W, incubated two hours with chemical substance): 1.0 | The level of expressed mRNA in the presence of chemical substance/The level of expressed mRNA in the absence of chemical substance (yeast gene YOL047C, incubated two hours with chemical substance): 1.3 | The level of expressed mRNA in the presence of chemical substance/The level of expressed mRNA in the absence of chemical substance (yeast gene YOL071W, incubated two hours with chemical substance): 2.0 | The level of expressed mRNA in the presence of chemical substance/The level of expressed mRNA in the absence of chemical substance (yeast gene YOL082W, incubated two hours with chemical substance): 2.5 | The level of expressed mRNA in the presence of chemical substance/The level of expressed mRNA in the absence of chemical substance (yeast gene YOL083W, incubated two hours with chemical substance): 3.1 | The level of expressed mRNA in the presence of chemical substance/The level of expressed mRNA in the absence of chemical substance (yeast gene YOL117W, incubated two hours with chemical substance): 1.6 | The level of expressed mRNA in the presence of chemical substance/The level of expressed mRNA in the absence of chemical substance (yeast gene YOL131W, incubated two hours with chemical substance): 1.3 | The level of expressed mRNA in the presence of chemical substance/The level of expressed mRNA in the absence of chemical substance (yeast gene YOL150C): 2.4 | The level of expressed mRNA in the presence of chemical substance/The level of expressed mRNA in the absence of chemical substance (yeast gene YOL162W, incubated two hours with chemical substance): 2.0 | The level of expressed mRNA in the presence of chemical substance/The level of expressed mRNA in the absence of chemical substance (yeast gene YOR019W, incubated two hours with chemical substance): 2.8 | The level of expressed mRNA in the presence of chemical substance/The level of expressed mRNA in the absence of chemical substance (yeast gene YOR197W, incubated two hours with chemical substance): 0.9 | The level of expressed mRNA in the presence of chemical substance/The level of expressed mRNA in the absence of chemical substance (yeast gene YPL087W, incubated two hours with chemical substance): 4.2 | The level of expressed mRNA in the presence of chemical substance/The level of expressed mRNA in the absence of chemical substance (yeast gene YPL196W, incubated two hours with chemical substance): 2.4 | The level of expressed mRNA in the presence of chemical substance/The level of expressed mRNA in the absence of chemical substance (yeast gene YPL206C, incubated two hours with chemical substance): 1.2 | The level of expressed mRNA in the presence of chemical substance/The level of expressed mRNA in the absence of chemical substance (yeast gene YPL222W, incubated two hours with chemical substance): 1.1 | The level of expressed mRNA in the presence of chemical substance/The level of expressed mRNA in the absence of chemical substance (yeast gene YPR023C, incubated two hours with chemical substance): 1.2 | The level of expressed mRNA in the presence of chemical substance/The level of expressed mRNA in the absence of chemical substance (yeast gene YPR151C, incubated two hours with chemical substance): 4.4
